The source of these data is paper PMC6349869, “The palladacycle complex AJ-5 induces apoptotic cell death while reducing autophagic flux in rhabdomyosarcoma cells” (Cell Death Discovery, 2019).

For test [1], the system named is SW1353, SW872, SW982, HT1080 and MG-63 cells. The experiment in a line: Clonogenic assay, sarcoma subtypes. In kind it is cell-based, human. The conditions noted are these: ¼ IC50, 24 h, all sarcoma subtypes. The protocol:
Cells were seeded in 6-well plates and treated the following day with IC50, ½ IC50, ¼ IC50 AJ-5 and vehicle. After 24 h, 800–4000 cells were seeded in 35 mm dishes in drug-free medium. Formation of colonies were monitored and after 7–21 days cells were fixed with 3:1 methanol:acetic acid and stained with 0.5% crystal violet (Sigma Aldrich) in 100% methanol. Colonies were imaged and percentage colony area was determined using ImageJ v1.50i[58] and the plugin ColonyArea[59]. Colony area was determined for each drug concentration and expressed as a percentage of vehicletreated control.
Fig. S2 AJ-5 is cytotoxic in a range of sarcoma subtypes. […] Graphs show mean cell viability as a percentage of vehicle control ± SEM for each concentration of AJ-5 determined from three independent experiments performed in quadruplicate. […] (B) Selectivity indices (SIs) were determined for each cell line by dividing the IC50 of each non-malignant cell line (Fig. 1C) including normal fibroblast cell lines (FG0 and DMB) and mesenchymal stem cell line (A10021501) by the IC50 of each sarcoma cell line. […] Colonies were stained with crystal violet and images from three independent repeats were quantified using the ImageJ plugin ColonyArea. […] Data was analysed using GraphPad Prism 6.0 and a parametric unpaired t-test was performed *p<0.05, **p<0.01, ***p<0.001.

In test [2] the test system is RH30 and RD cells. Put plainly: Cell cycle analysis (FACS, PI) and cyclin western blots. In kind it is cell-based, human. Here is the method:
Cells were lysed at 4 °C in whole-cell lysis buffer (0.125 M Tris-HCl pH 6.8, 4% SDS, 0.2% glycerol, 0.1% β-mercaptoethanol and a pinch of bromophenol blue) and boiled for 10 min. Proteins were resolved by SDS-PAGE (6–15% gels) and transferred to Hybond ECL membranes (Amersham, UK). The membranes were incubated with primary antibodies: rabbit polyclonal antibodies to phospho-histone H2A.X (Ser139) (#2577), phospho-chk2 (Thr68) (#221), phospho-p38 MAPK (Thr180/Tyr182) (#9211), cleaved caspase-3 (Asp175) (#9661), PARP (#9542), caspase-9 (#9502), LC3B (#2775), p38 MAPK (#9212), rabbit monoclonal antibody to cleaved caspase-7 (Asp198) (D6H1) (#8438), mouse monoclonal antibodies to phospho-ATM (Ser1981) (D6H9) (#5883), Cyclin B1 (V152) (#4135), Caspase-8 (1C12) (#9746), SQSTM1/p62 (D5L7G) (#88588) from Cell Signaling Technology (Massachusetts, USA); mouse monoclonal antibody to p53 (DO-1) (sc-126), rabbit polyclonal antibodies to p21 (C-19) (sc-397), cyclin A (H-432) (sc-751), cyclin B1 (H-433)(sc-752), PARP-1 (H-250) (sc-7150) from Santa Cruz Biotechnology (Texas, USA); rabbit polyclonal antibody to p38 MAP kinase (M0800) from Sigma Aldrich. […] Densitometry readings were obtained using ImageJ v1.50i[58] and protein expression levels were represented as a ratio of protein of interest/p38 loading control normalized to the vehicletreated control sample where appropriate. […]
(In general: In western blotting, separated proteins are transferred to a membrane and probed.)

On to `CC(C)c1cccc(C(C)C)c1[N+]1=Cc2cccc[c]2[Pd-2]1([Cl])[P+](CC[P+](c1ccccc1)(c1ccccc1)[Pd-2]1([Cl])[c]2ccccc2C=[N+]1c1c(C(C)C)cccc1C(C)C)(c1ccccc1)c1ccccc1` (stereo not drawn) [AJ-5], for which the “Ability of sarcoma cells to survive and proliferate (colony area)” value in test [1] is reported as “significantly reduced”. The Cell cycle progression result in test [2] (IC50, 24 and 48 h, FACS) was “induces a G1 cell cycle arrest”. The “Levels of cyclin A and cyclin B” value in test [2] (western blotting) is reported as “decrease”.
